Experimental data: ChEMBL document CHEMBL1125820, “Structure-activity relationship of mutagenic aromatic and heteroaromatic nitro compounds. Correlation with molecular orbital energies and hydrophobicity” (J Med Chem, 1991)

Key:
Salmonella typhimurium = experiment: Mutagenic activity in an Ames test on Salmonella Typhimurium TA98; Activity is log of revertants/nmol; type: functional, Salmonella enterica subsp. enterica serovar Typhimurium; set-up: scale not given here
[1] = Partition coefficient (logP); conditions: octanol/water

Structure (SMILES)	Activity (Salmonella typhimurium)	logP [1]
O=[N+]([O-])c1ccc2c(c1)-c1ccc([N+](=O)[O-])c3cccc-2c13	5.02	4.44
O=[N+]([O-])c1ccc2ccc3cccc4cc(O)c1c2c34	1.89	4.34
O=[N+]([O-])c1cc2ccccc2c2ccccc12	2.25	4.23
O=[N+]([O-])c1ccc2ccc3c4c(cc5ccc1c2c53)C=CC(O)C4O (stereo unspecified)	2.8	3.01
O=[N+]([O-])c1cccc2cccnc12	–	1.44
Nc1c(Br)cc([N+](=O)[O-])cc1[N+](=O)[O-]	-1.32	2.78
O=[N+]([O-])c1ccc2ccc3cc4c(c5ccc1c2c35)CCCC4	0.9	6.57
Cc1ccccc1-c1ccc([N+](=O)[O-])cc1	-0.23	4.27
O=[N+]([O-])c1ccc2c3ccc([N+](=O)[O-])c4ccc5ccc6ccc1c2c6c5c43	3.6	6.07
CCOc1ccccc1[N+](=O)[O-]	-2.22	2.35
O=[N+]([O-])c1ccc(/C=C/c2ccccc2)cc1	–	4.18
O=[N+]([O-])c1cc2c3ccccc3ccc2c2ccccc12	1.75	5.41
Nc1ccc([N+](=O)[O-])cc1O	-2.4	1.36
O=[N+]([O-])c1ccc2c(c1)CCc1ccccc1-2	1.99	4.53
O=[N+]([O-])c1ccc2c(c1)Cc1cc(I)ccc1-2	2.97	5.09
O=[N+]([O-])c1ccc2nc3ccccc3nc2c1	–	2.52
O=[N+]([O-])c1cc2ccc3cc([N+](=O)[O-])cc4ccc(c1)c2c34	–	4.44
O=[N+]([O-])c1ccc2oc3ccccc3c2c1	1.64	3.83
O=C1Nc2ccc([N+](=O)[O-])cc2C1=O [5-NITROISATIN]	-0.94	0.47
O=[N+]([O-])c1c(O)cc2cccc3c2c1-c1ccccc1-3	2.26	4.66
O=[N+]([O-])c1cc2c(cc1Cl)Oc1cc(Cl)c(Cl)cc1O2	-0.53	6.68
O=[N+]([O-])c1ccc2c(c1)-c1cccc3cccc-2c13	4.05	4.69
O=[N+]([O-])c1cccc(F)c1	–	1.9
O=[N+]([O-])c1ccc2c3c(cccc13)C=C2	1.91	3.36
CC(=O)c1ccc([N+](=O)[O-])cc1	–	1.53
O=[N+]([O-])c1cccc2cc[nH]c12	–	2.13

Structure (SMILES)	Activity (Salmonella typhimurium)	logP [1]
O=[N+]([O-])c1cc(Cl)ccc1Cl	-1.54	2.9
O=[N+]([O-])c1ccc2ccc3c4ccccc4cc4ccc1c2c43	2.82	5.87
Cc1nc2cc([N+](=O)[O-])ccc2[nH]1	-0.51	1.94
O=[N+]([O-])c1ccc2c(c1)CC=C2	0.96	2.74
O=[N+]([O-])c1ccc2ccc3c(O)ccc4ccc1c2c43	1.34	4.19
O=C(/C=C/c1ccccc1)c1ccc([N+](=O)[O-])cc1	-1.15	2.83
O=[N+]([O-])c1ccc2c(c1)Cc1cc(F)ccc1-2	2.68	4.11
O=[N+]([O-])c1cccc2[nH]c3ccccc3c12	-2	3.51
O=[N+]([O-])c1cc2cccc3ccc4cccc1c4c32	–	4.69
O=[N+]([O-])c1ccc2c3c(cccc13)CC2	0.58	3.85
O=[N+]([O-])C1=Cc2c3c1cccc3cc1ccc3ccccc3c21	0.26	5.07
O=[N+]([O-])C1=CC=CC2Nc3ccccc3NC12 (stereo unspecified)	0.87	2.52
Cn1ncc2cccc([N+](=O)[O-])c21	-1	1.77
Cc1c([N+](=O)[O-])ccc2ccccc12	-0.7	3.43
O=[N+]([O-])c1ccc2ccc3ccc(O)c4ccc1c2c34	1.49	4.19
O=[N+]([O-])c1nc2ccccc2[nH]1	0	1.59
Nc1cccc(-c2ccc([N+](=O)[O-])cc2)c1	0.25	2.68
O=[N+]([O-])c1c(Cl)c(Cl)c2c(c1Cl)Oc1cc(Cl)c(Cl)cc1O2	-0.33	7.84
O=[N+]([O-])c1ccc2c3ccccc3c3cccc4ccc1c2c43	–	5.87
O=C1c2cc([N+](=O)[O-])ccc2-c2ccc([N+](=O)[O-])cc21	–	2.84
O=[N+]([O-])c1cc([N+](=O)[O-])c2ccc3cccc4ccc1c2c43	5.04	4.44
O=[N+]([O-])c1ccc(F)c([N+](=O)[O-])c1	1.2	1.49
O=[N+]([O-])c1ccc2c3c([N+](=O)[O-])ccc4ccc5ccc6ccc1c2c6c5c43	4.33	6.07
O=[N+]([O-])C1=Cc2cc3cc4ccccc4cc3c3cccc1c23	0.67	5.07
Nc1ccc2ccc3ccc([N+](=O)[O-])c4ccc1c2c34	2.43	3.63
Cn1ncc2cc([N+](=O)[O-])ccc21	-0.82	1.77

Structure (SMILES)	Activity (Salmonella typhimurium)	logP [1]
O=C(/C=C/c1ccc([N+](=O)[O-])cc1)c1ccc([N+](=O)[O-])cc1	-1.42	2.73
O=[N+]([O-])c1cccc2cccc([N+](=O)[O-])c12	0.9	2.52
CN1CCc2cc([N+](=O)[O-])ccc21	–	2.86
O=[N+]([O-])c1c2c(cc3ccccc13)C=CC(O)C2O (stereo unspecified)	–	1.38
O=[N+]([O-])c1cccc2c3ccccc3c3ccccc3c12	–	5.41
O=C/C=C/c1ccc([N+](=O)[O-])o1	1.97	0.96
O=[N+]([O-])c1cccc2[nH]ccc12	–	2.13
O=[N+]([O-])c1ccc2[nH]c3ccccc3c2c1	-0.7	3.51
O=[N+]([O-])c1cc2c3c(ccc4cc([N+](=O)[O-])cc(c43)CC2)c1	4.25	4.73
O=[N+]([O-])c1cccc2c1-c1cccc3c([N+](=O)[O-])ccc-2c13	5.09	4.44
Nc1ccc2c(c1)Cc1cc([N+](=O)[O-])ccc1-2	1.56	3.06
O=[N+]([O-])c1ccc2ccc3c([N+](=O)[O-])ccc4ccc1c2c43	5.06	4.44
O=[N+]([O-])c1ccc2c(c1)C=CC2	0.08	2.74
O=[N+]([O-])c1ccc2c(c1)Oc1ccccc1O2	1.79	4.73
O=[N+]([O-])c1cc2c([N+](=O)[O-])ccc3c2c(c1[N+](=O)[O-])-c1ccccc1-3	3.56	4.18
COc1cc([N+](=O)[O-])c2ncccc2c1	-1.21	1.87
O=[N+]([O-])c1ccc2ccc3cccc4c5ccccc5c1c2c34	–	5.87
Cc1cc2ccccc2cc1[N+](=O)[O-]	0	3.43
O=[N+]([O-])c1cccc2cnccc12	-1.55	1.65
O=[N+]([O-])c1ccc2c3ccccc3c3c([N+](=O)[O-])ccc4ccc1c2c43	1.99	5.61
O=[N+]([O-])c1cc2cccnc2c2ncccc12	0.59	1.84
O=[N+]([O-])c1cccc2c([N+](=O)[O-])cccc12	0.52	2.58
O=[N+]([O-])c1c2c3c(ccc4cccc(c43)CC2)c2ccccc12	0.3	6.16
O=[N+]([O-])c1ccc2c3c(c4c([N+](=O)[O-])ccc5ccc1c2c54)CCCC3	2.41	6.01
O=[N+]([O-])c1ccc2c(c1)Cc1ccccc1-2 [2-NITROFLUORENE]	1.43	3.37
O=[N+]([O-])c1cc2c3c(cccc3c1)-c1ccccc1-2	3.01	4.69

Structure (SMILES)	Activity (Salmonella typhimurium)	logP [1]
O=[N+]([O-])c1cccc2cn[nH]c12 [7-NITROINDAZOLE]	0.11	1.75
O=[N+]([O-])c1c2cccc(O)c2cc2c1ccc1ccccc12	–	5.06
O=[N+]([O-])c1cccc(Cl)c1	–	2.41
O=[N+]([O-])c1ccc2cccc3c2c1-c1ccccc1-3	–	4.69
O=[N+]([O-])c1c2c(c3ccc4cccc5ccc1c3c45)CCCC2O (stereo unspecified)	–	4.78
O=[N+]([O-])c1ccc(Cl)cc1Cl	–	3.09
Nc1ccc(-c2ccc([N+](=O)[O-])cc2)cc1	–	2.68
O=[N+]([O-])c1ccc2c3cccc4cccc(c5cccc1c52)c43	–	5.87
O=[N+]([O-])c1ccc2c(c1)CCN2	–	2.07
O=[N+]([O-])c1ccccc1F	–	1.69
Cc1ncc([N+](=O)[O-])n1CCO [METRONIDAZOLE]	–	-0.02
Cn1ccc2cccc([N+](=O)[O-])c21	–	2.5
O=[N+]([O-])c1ccc(Cl)cc1	–	2.39
O=[N+]([O-])c1ccc2ccccc2c1	–	3.24
O=[N+]([O-])c1c2ccccc2cc2c3c(ccc12)C(O)C(O)C=C3 (stereo unspecified)	–	2.55
O=[N+]([O-])c1c2c(cc3ccccc13)C(O)C(O)C=C2 (stereo unspecified)	–	3.4
O=Cc1ccccc1[N+](=O)[O-] [2-NITROBENZALDEHYDE]	-1.92	–
O=[N+]([O-])c1c2c(c3ccc4cccc5ccc1c3c45)CCCC2	–	6.57
O=Cc1ccc([N+](=O)[O-])cc1	–	1.56
O=[N+]([O-])c1c2c(cc3c1ccc1ccccc13)C=CC(O)C2O (stereo unspecified)	–	2.55
O=C1OCCN1/N=C/c1ccc([N+](=O)[O-])o1 [FURAZOLIDONE]	2.24	–
Cn1ccc2cc([N+](=O)[O-])ccc21	–	2.5
O=C1CN(/N=C/c2ccc([N+](=O)[O-])o2)C(=O)N1 [NITROFURANTOIN]	1.03	–
O=[N+]([O-])c1ccc(Cl)c(Cl)c1	–	3.12
